Measured values: US20130209543A1, “ENHANCED TREATMENT REGIMENS USING MTOR INHIBITORS” (Intellikine LLC, priority 2011, published 2013)

Test: Phase I clinical trial: safety, related treatment-emergent adverse events, patients n (%)
Type: in vivo
Description: Safety, maximum tolerated dose (MTD), pharmacokinetics (PK) and preliminary antitumor activity were evaluated.
Pharmacodynamic (PD) endpoints were evaluated in surrogate (peripheral blood cells [PBCs], skin) and tumor tissues for the phosphorylation of TORC1-dependent markers (4EBP1/S6), and TORC2-dependent markers (AKT/PRAS40).

CC(C)n1nc(-c2ccc3oc(N)nc3c2)c2c(N)ncnc21 [compound A]
Asthenia (6 mg/3W, N = 3): 0 (0%)
Asthenia (second line) (6 mg/3W, N = 3): 0 (0%)
Catheter site inflammation (6 mg/3W, N = 3): 0 (0%)
Catheter site pain (6 mg/3W, N = 3): 0 (0%)
Decreased appetite (6 mg/3W, N = 3): 0 (0%)
Diarrhoea (6 mg/3W, N = 3): 0 (0%)
Dry skin (6 mg/3W, N = 3): 0 (0%)
Dysgeusia (6 mg/3W, N = 3): 0 (0%)
Dyspnoea (6 mg/3W, N = 3): 0 (0%)
Fatigue (6 mg/3W, N = 3): 0 (0%)
Headache (6 mg/3W, N = 3): 0 (0%)
Hypercholesterolaemia (6 mg/3W, N = 3): 0 (0%)
Hypertransaminasaemia (6 mg/3W, N = 3): 0 (0%)
Hypertriglyceridaemia (6 mg/3W, N = 3): 0 (0%)
Hypomagnesaemia (6 mg/3W, N = 3): 0 (0%)
Hypotension (6 mg/3W, N = 3): 0 (0%)
Low fever (6 mg/3W, N = 3): 0 (0%)
Lymphopenia (6 mg/3W, N = 3): 0 (0%)
Palmar-plantar erythrodysaesthesia syndrome (6 mg/3W, N = 3): 0 (0%)
Patients Reporting at Least One Related TEAE (6 mg/3W, N = 3): 3 (100%)
Pyrexia (6 mg/3W, N = 3): 0 (0%)
Rash macular (6 mg/3W, N = 3): 0 (0%)
Urinary tract infection (6 mg/3W, N = 3): 0 (0%)
Nausea (7 mg/5W, N = 3): 0 (0%)
Nausea (second line) (7 mg/5W, N = 3): 1 (33%)
Urine tract infection (7 mg/5W, N = 3): 0 (0%)
Vomiting (7 mg/5W, N = 3): 0 (0%)
Patients Reporting at Least One Related TEAE (7 mg/week, N = 3): 3 (100%)
Alanine aminotransferase increased (9 mg/3W, N = 5): 0 (0%)
Asthenia (9 mg/3W, N = 5): 1 (20%)
Asthenia (second line) (9 mg/3W, N = 5): 0 (0%)
Catheter site inflammation (9 mg/3W, N = 5): 0 (0%)
Catheter site pain (9 mg/3W, N = 5): 0 (0%)
Decreased appetite (9 mg/3W, N = 5): 0 (0%)
Diarrhoea (9 mg/3W, N = 5): 1 (20%)
Dry skin (9 mg/3W, N = 5): 1 (20%)
Dysgeusia (9 mg/3W, N = 5): 0 (0%)
Dyspnoea (9 mg/3W, N = 5): 1 (20%)
Fatigue (9 mg/3W, N = 5): 0 (0%)
Headache (9 mg/3W, N = 5): 0 (0%)
Hyperbilirubinaemia (9 mg/3W, N = 5): 0 (0%)
Hypercholesterolaemia (9 mg/3W, N = 5): 1 (20%)
Hyperglycaemia (9 mg/3W, N = 5): 1 (20%)
Hypertransaminasaemia (9 mg/3W, N = 5): 1 (20%)
Hypertriglyceridaemia (9 mg/3W, N = 5): 1 (20%)
Hypomagnesaemia (9 mg/3W, N = 5): 1 (20%)
Hypotension (9 mg/3W, N = 5): 1 (20%)
Low fever (9 mg/3W, N = 5): 0 (0%)
Lymphopenia (9 mg/3W, N = 5): 1 (20%)
Mucosal inflammation (9 mg/3W, N = 5): 2 (40%)
Nausea (9 mg/3W, N = 5): 2 (40%)
Palmar-plantar erythrodysaesthesia syndrome (9 mg/3W, N = 5): 1 (20%)
Patients Reporting at Least One Related TEAE (9 mg/3W, N = 5): 4 (80%)
Platelet count decreased (9 mg/3W, N = 5): 0 (0%)
Pruritus (9 mg/3W, N = 5): 2 (40%)
Pyrexia (9 mg/3W, N = 5): 0 (0%)
Rash (9 mg/3W, N = 5): 3 (60%)
Rash macular (9 mg/3W, N = 5): 0 (0%)
Urinary tract infection (9 mg/3W, N = 5): 1 (20%)
Vomiting (9 mg/3W, N = 5): 2 (40%)
Diarrhoea (10 mg/5W, N = 3): 0 (0%)
Nausea (second line) (10 mg/5W, N = 3): 0 (0%)
Rash (10 mg/5W, N = 3): 0 (0%)
Mucosal inflammation (10 mg/week, N = 3): 0 (0%)
Alanine aminotransferase increased (12 mg/3W, N = 3): 0 (0%)
Asthenia (second line) (12 mg/3W, N = 3): 0 (0%)
Diarrhoea (12 mg/3W, N = 3): 0 (0%)
Dry skin (12 mg/3W, N = 3): 0 (0%)
Dyspnoea (12 mg/3W, N = 3): 0 (0%)
Fatigue (12 mg/3W, N = 3): 0 (0%)
Headache (12 mg/3W, N = 3): 0 (0%)
Hyperbilirubinaemia (12 mg/3W, N = 3): 0 (0%)
Hypercholesterolaemia (12 mg/3W, N = 3): 0 (0%)
Hypertransaminasaemia (12 mg/3W, N = 3): 0 (0%)
Hypertriglyceridaemia (12 mg/3W, N = 3): 0 (0%)
Hypomagnesaemia (12 mg/3W, N = 3): 0 (0%)
Hypotension (12 mg/3W, N = 3): 0 (0%)
Low fever (12 mg/3W, N = 3): 0 (0%)
Lymphopenia (12 mg/3W, N = 3): 0 (0%)
Palmar-plantar erythrodysaesthesia syndrome (12 mg/3W, N = 3): 0 (0%)
Platelet count decreased (12 mg/3W, N = 3): 0 (0%)
Pyrexia (12 mg/3W, N = 3): 0 (0%)
Rash (12 mg/3W, N = 3): 0 (0%)
Urinary tract infection (12 mg/3W, N = 3): 0 (0%)
Vomiting (12 mg/3W, N = 3): 0 (0%)
Patients Reporting at Least One Related TEAE (15 mg/week, N = 3): 3 (100%)
Alanine aminotransferase increased (16 mg/3W, N = 3): 0 (0%)
Asthenia (second line) (16 mg/3W, N = 3): 1 (33%)
Catheter site inflammation (16 mg/3W, N = 3): 0 (0%)
Catheter site pain (16 mg/3W, N = 3): 0 (0%)
Decreased appetite (16 mg/3W, N = 3): 0 (0%)
Dry skin (16 mg/3W, N = 3): 0 (0%)
Dysgeusia (16 mg/3W, N = 3): 0 (0%)
Dyspnoea (16 mg/3W, N = 3): 0 (0%)
Hyperbilirubinaemia (16 mg/3W, N = 3): 0 (0%)
Hypercholesterolaemia (16 mg/3W, N = 3): 0 (0%)
Hypertransaminasaemia (16 mg/3W, N = 3): 0 (0%)
Hypertriglyceridaemia (16 mg/3W, N = 3): 0 (0%)
Hypomagnesaemia (16 mg/3W, N = 3): 0 (0%)
Hypotension (16 mg/3W, N = 3): 0 (0%)
Lymphopenia (16 mg/3W, N = 3): 0 (0%)
Nausea (16 mg/3W, N = 3): 0 (0%)
Palmar-plantar erythrodysaesthesia syndrome (16 mg/3W, N = 3): 0 (0%)
Platelet count decreased (16 mg/3W, N = 3): 0 (0%)
Pruritus (16 mg/3W, N = 3): 0 (0%)
Rash (16 mg/3W, N = 3): 0 (0%)
Rash macular (16 mg/3W, N = 3): 0 (0%)
Urinary tract infection (16 mg/3W, N = 3): 0 (0%)
Vomiting (16 mg/3W, N = 3): 0 (0%)
Dose limiting toxicity (20 mg Q3D): Mucositis
Nausea (30 mg/week, N = 3): 3 (100%)
Patients Reporting at Least One Related TEAE (30 mg/week, N = 3): 3 (100%)
Dose limiting toxicity (40 mg QW): Asthenia
Dose limiting toxicities (40 mg QW, 20 mg QD×3d QW and 13 mg QD×5d QW cohorts): Grade (G) 3 asthenia and G3 mucositis
Catheter site inflammation (Total QD Dosing, N = 25): 0 (0%)
Catheter site pain (Total QD Dosing, N = 25): 0 (0%)
Diarrhea (Total QD Dosing, N = 25): 0 (0%)
Fatigue (Total QD Dosing, N = 25): 0 (0%)
Headache (Total QD Dosing, N = 25): 0 (0%)
Hyperbilirubinaemia (Total QD Dosing, N = 25): 0 (0%)
Hypertransaminasaemia (Total QD Dosing, N = 25): 0 (0%)
Hypertriglyceridaemia (Total QD Dosing, N = 25): 0 (0%)
Hypomagnesaemia (Total QD Dosing, N = 25): 0 (0%)
Hypotension (Total QD Dosing, N = 25): 0 (0%)
Low fever (Total QD Dosing, N = 25): 0 (0%)
Malaise (Total QD Dosing, N = 25): 0 (0%)
Nausea (Total QD Dosing, N = 25): 0 (0%)
Oral discomfort (Total QD Dosing, N = 25): 0 (0%)
Palmar-plantar erythrodysaesthesia syndrome (Total QD Dosing, N = 25): 0 (0%)
Platelet count decreased (Total QD Dosing, N = 25): 0 (0%)
Pyrexia (Total QD Dosing, N = 25): 0 (0%)
Rash (Total QD Dosing, N = 25): 0 (0%)
Rash macular (Total QD Dosing, N = 25): 0 (0%)
Urinary tract infection (Total QD Dosing, N = 25): 0 (0%)
Urine tract infection (Total QD Dosing, N = 25): 0 (0%)
Vomiting (Total QD Dosing, N = 25): 0 (0%)
Weakness (Total QD Dosing, N = 25): 0 (0%)
Asthenia (second line) (Total QDx3d QW, N = 14): 1 (7%)
Coagulopathy (Total QDx3d QW, N = 14): 0 (0%)
Confusional state (Total QDx3d QW, N = 14): 0 (0%)
Cough (Total QDx3d QW, N = 14): 0 (0%)
Diarrhea (Total QDx3d QW, N = 14): 0 (0%)
Dizziness (Total QDx3d QW, N = 14): 0 (0%)
Dyspnoea exertional (Total QDx3d QW, N = 14): 0 (0%)
Eye infection (Total QDx3d QW, N = 14): 0 (0%)
